What was measured:
[1] = target: human T1R2/T1R3 sweet taste receptor; settings: HEK293 stably expressing T1R2/T1R3, FLIPR calcium mobilization; cited from earlier work
[2] = target: T1, heterodimeric receptor (T1R2/T1R3) (Homo sapiens, UniProt Q7RTX0+Q8TE23); test: Competition binding with [14C]-sucrose as radioligand
T1 sequence (Q8TE23 20-839): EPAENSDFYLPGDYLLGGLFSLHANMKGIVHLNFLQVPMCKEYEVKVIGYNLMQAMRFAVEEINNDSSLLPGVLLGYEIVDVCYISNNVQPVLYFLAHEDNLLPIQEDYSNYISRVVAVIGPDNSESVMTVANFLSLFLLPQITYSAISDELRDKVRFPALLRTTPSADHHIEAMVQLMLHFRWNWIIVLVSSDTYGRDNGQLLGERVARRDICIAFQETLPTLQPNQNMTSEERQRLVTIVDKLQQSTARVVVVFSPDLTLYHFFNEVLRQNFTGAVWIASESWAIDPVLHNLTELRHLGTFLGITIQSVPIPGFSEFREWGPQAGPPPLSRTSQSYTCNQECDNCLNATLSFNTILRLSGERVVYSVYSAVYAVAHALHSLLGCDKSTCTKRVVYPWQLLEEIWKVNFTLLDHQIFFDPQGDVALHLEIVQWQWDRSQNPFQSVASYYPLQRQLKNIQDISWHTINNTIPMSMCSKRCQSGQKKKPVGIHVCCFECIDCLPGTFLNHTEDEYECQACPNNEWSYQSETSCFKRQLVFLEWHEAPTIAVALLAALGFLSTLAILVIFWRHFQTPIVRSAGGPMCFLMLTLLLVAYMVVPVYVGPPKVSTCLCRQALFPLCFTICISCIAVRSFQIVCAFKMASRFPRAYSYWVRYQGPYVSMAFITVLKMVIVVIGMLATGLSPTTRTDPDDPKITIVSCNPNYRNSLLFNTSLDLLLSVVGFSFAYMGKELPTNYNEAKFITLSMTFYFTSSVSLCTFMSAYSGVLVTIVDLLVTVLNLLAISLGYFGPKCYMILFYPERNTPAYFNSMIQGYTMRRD
T1 sequence (Q7RTX0 21-852): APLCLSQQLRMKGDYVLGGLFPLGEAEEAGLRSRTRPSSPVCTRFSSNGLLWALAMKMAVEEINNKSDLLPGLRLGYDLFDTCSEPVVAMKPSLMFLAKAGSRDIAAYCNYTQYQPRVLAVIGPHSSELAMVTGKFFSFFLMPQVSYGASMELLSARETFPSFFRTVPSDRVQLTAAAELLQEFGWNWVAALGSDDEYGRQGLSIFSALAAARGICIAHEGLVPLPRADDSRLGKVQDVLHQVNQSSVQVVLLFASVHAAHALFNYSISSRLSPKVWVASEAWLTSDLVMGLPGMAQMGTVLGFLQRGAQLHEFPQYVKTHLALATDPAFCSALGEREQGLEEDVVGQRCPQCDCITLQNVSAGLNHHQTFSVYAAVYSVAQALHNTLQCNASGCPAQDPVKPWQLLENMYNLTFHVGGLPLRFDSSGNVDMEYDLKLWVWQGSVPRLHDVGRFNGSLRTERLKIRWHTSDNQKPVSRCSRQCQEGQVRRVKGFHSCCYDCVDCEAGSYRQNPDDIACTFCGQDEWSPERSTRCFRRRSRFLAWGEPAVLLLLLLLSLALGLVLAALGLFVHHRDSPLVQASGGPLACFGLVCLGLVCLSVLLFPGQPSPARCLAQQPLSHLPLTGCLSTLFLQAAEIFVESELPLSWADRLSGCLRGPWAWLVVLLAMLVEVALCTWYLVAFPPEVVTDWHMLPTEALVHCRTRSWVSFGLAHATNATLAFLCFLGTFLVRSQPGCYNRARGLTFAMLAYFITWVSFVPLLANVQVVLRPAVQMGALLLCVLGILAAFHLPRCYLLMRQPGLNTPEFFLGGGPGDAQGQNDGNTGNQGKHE

[3] = target: T2, heterodimeric receptor (T1R2/T1R3), presumed VFD2 binding site (Homo sapiens, UniProt Q7RTX0+Q8TE23); test: Competition binding with [3H]-Rebaudioside B as radioligand
T2 sequence (Q8TE23 20-839): T1 sequence (Q8TE23 20-839)
T2 sequence (Q7RTX0 21-852): T1 sequence (Q7RTX0 21-852)

[4] = target: T3, heterodimeric receptor (T1R2/T1R3), TMD2 binding site (Homo sapiens, UniProt Q7RTX0+Q8TE23); test: Competition binding with [3H]-Perillartine as radioligand; settings: radioligand [3H]-Perillartine
T3 sequence (Q8TE23 20-839): T1 sequence (Q8TE23 20-839)
T3 sequence (Q7RTX0 21-852): T1 sequence (Q7RTX0 21-852)

[5] = target: T4, heterodimeric receptor (T1R2/T1R3), TMD3 binding site (Homo sapiens, UniProt Q7RTX0+Q8TE23); test: Competition binding with [3H]-lactisole as radioligand; settings: for Ki: radiolabeled ligand lactisole
T4 sequence (Q8TE23 20-839): T1 sequence (Q8TE23 20-839)
T4 sequence (Q7RTX0 21-852): T1 sequence (Q7RTX0 21-852)

Ki [2]: 13600 µM | Ki [3]: 63400 µM | Competitive inhibition with RebB ([3]; radioligand [3H]-Rebaudioside B): positive inhibition | Competitive inhibition with perillartine [4]: high levels of inhibition | Ki ([5]; Ki (mM), TMD3 binding, Table 4): 0.33 mM | Ki ([5]; Ki): 0.334 mM | Competitive inhibition with lactisole ([5]; radioligand [3H]-lactisole): inhibition
Structure (SMILES): COc1ccc(CCC(=O)c2c(O)cc(O[C@@H]3O[C@H](CO)[C@@H](O)[C@H](O)[C@H]3O[C@@H]3O[C@@H](C)[C@H](O)[C@@H](O)[C@H]3O)cc2O)cc1O [NHDC, Neohesperidin Dihydrochalcone]
EC50 [1]: 10.2 µM
